Experiment [1] has as its target Cyclin-dependent kinase 4 (Homo sapiens, UniProt P11802). The experiment can be described thus: Inhibition of CDK4.
Experiment [2] addresses Receptor tyrosine-protein kinase erbB-2 (Homo sapiens, UniProt P04626). Kind of experiment: Inhibition of c-erbB-2.

Cyclin-dependent kinase 4, sequence (P11802 whole entry): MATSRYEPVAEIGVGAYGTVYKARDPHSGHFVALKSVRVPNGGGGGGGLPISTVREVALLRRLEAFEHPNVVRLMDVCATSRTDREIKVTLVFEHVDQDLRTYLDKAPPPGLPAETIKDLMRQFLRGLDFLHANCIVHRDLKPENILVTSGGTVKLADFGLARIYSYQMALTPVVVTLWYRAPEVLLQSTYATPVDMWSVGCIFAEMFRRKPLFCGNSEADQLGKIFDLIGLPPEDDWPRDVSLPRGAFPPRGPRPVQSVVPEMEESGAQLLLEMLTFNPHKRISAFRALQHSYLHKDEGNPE
Receptor tyrosine-protein kinase erbB-2, sequence (P04626 whole entry): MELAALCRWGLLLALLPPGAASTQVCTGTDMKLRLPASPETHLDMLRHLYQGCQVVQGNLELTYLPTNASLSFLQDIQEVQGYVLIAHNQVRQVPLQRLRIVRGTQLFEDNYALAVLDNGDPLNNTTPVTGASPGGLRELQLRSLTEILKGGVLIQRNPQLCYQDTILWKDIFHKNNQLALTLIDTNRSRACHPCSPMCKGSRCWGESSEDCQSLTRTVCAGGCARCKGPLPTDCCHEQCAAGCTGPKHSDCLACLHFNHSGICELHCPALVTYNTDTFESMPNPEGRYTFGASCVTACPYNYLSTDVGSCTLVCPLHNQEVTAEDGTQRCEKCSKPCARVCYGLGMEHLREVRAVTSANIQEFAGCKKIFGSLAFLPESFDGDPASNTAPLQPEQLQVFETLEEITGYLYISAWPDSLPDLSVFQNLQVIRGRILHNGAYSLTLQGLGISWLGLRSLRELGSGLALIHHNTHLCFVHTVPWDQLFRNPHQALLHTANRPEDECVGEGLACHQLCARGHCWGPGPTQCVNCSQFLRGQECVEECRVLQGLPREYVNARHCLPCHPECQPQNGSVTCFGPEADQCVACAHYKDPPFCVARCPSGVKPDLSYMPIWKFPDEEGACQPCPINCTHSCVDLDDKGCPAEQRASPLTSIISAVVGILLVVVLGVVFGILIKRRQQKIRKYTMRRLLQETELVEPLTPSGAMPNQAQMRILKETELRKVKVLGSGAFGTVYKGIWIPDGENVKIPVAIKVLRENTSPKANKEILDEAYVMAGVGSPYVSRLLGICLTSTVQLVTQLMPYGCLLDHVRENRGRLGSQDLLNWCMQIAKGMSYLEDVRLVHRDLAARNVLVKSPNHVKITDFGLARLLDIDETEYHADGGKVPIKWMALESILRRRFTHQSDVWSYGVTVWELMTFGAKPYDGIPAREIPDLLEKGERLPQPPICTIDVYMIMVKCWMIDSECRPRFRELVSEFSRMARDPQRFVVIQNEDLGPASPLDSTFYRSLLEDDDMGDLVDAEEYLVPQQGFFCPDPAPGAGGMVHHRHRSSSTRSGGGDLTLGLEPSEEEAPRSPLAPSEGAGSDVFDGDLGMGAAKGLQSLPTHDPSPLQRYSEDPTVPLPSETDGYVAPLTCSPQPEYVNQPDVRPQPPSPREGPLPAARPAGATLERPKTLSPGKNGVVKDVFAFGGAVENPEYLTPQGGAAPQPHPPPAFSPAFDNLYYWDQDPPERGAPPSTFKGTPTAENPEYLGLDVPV

The term IC50 denotes the concentration that gives 50% inhibition. A low value points to greater potency in that assay. As to `O=C1NC(=O)/C(=C2\CCNC(=O)c3[nH]ccc32)N1` [SPONGIACIDIN C], the IC50 in experiment [1] and in experiment [2] was over 203 µM in each case.
`O=C1NC(=O)/C(=C2\CCNC(=O)c3[nH]c(Br)cc32)N1` [SPONGIACIDIN D]: the half-inhibitory concentration (IC50) in experiment [1] and in experiment [2] was over 154 µM throughout.
